In patent publication US6653529B2, “Use of the maize X112 mutant ahas 2 gene and imidazolinone herbicides for selection of transgenic monocots, maize, rice and wheat plants resistant to the imidazolinone herbicides” (BASF Aktiengesellschaft, priority 2000, dated 2003):
Values joined by “and” are separate entries in the source; they are usually repeats but may differ in a detail not shown here. Equal entries are not always repeated.

Experiments:
Type in all cases: in vivo
[1] = test system: untransformed Nt rice plants; assay: Response of rice plants to various herbicides, seed set in greenhouse; conditions: post-emergence, 1× g ai/ha: PURSUIT 62.5, CADRE 32, ARSENAL 24, RAPTOR 32, SCEPTER 125, ACCENT 35, CLASSIC 5, AC322,140 20, LONDAX 68
Procedure, shortened: (§1)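 Greenhouse flats, 10 plants per cell; 9 herbicides (imidazolinones, rice herbicides, nicosulfuron, chlorimuron-ethyl) sprayed pre- or post-emergence at 1, 2, 4 and 6× rates, three replications. Fresh weight taken 32 days (pre) or 29 days (post, 5 plants/cell) after spraying; remaining plants grown to maturity for percentage filled-seed set.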

transgenic rice Line 29 = assay: as above; conditions: post-emergence, 1× g ai/ha: PURSUIT 62.5, CADRE 32, ARSENAL 24, RAPTOR 32, SCEPTER 125, ACCENT 35, CLASSIC 5, AC322,140 20, LONDAX 68
Procedure, shortened: as §1

transgenic rice Line 26 = assay: as above; conditions: post-emergence, 1× g ai/ha: PURSUIT 62.5, CADRE 32, ARSENAL 24, RAPTOR 32, SCEPTER 125, ACCENT 35, CLASSIC 5, AC322,140 20, LONDAX 68
Procedure, shortened: as §1

[2] = test system: 8692 (wild type control corn line); assay: Greenhouse spray test of corn lines with imidazolinone herbicides, injury score; conditions: for Score, individual plants (0 dead plants, 5 healthy plants with no injury): 16 days after treatment; for M.S.: score 0 (dead) to 5 (healthy), 16 days
[3] = test system: 3395IR (homozygous XA17 imi-resistant corn line); assay: as above; conditions: for Score, individual plants (0 dead plants, 5 healthy plants with no injury): 16 days after treatment; for M.S.: score 0 (dead) to 5 (healthy), 16 days
From the text: (§2) Grow one corn plant per pot (5×5 inch) in a 3×5 flat till three- to four-leaf stage (about 9 to 13 days depending on the weather). On the day of spraying, water the plants well and let excess water drip out. Spray plants on a belt-sprayer with the imidazolinone herbicides at desired rates. […] When temperature was too high, base water plants to prevent wilting. Closely observe the plants for the next two to three weeks. Symptoms of herbicide injury will be visible three days after spraying and susceptible plants will die within two to three weeks depending on temperature.
(§3) The plants were rated on a scale of 0-5 with 0 for dead plants and 5 for healthy plants with no or minimum injury.
(§4) Two transgenic hybrids BAa-4 and MAa-7 lines (see FIG. 5 for their pedigree), a non-transformed control line B×A (B73×A188), 8962IT (heterozygous XI12 imi-tolerant corn line), 8962 (wild type control) and 3395IR (homozygous XA17 imi-resistant corn line) (8962IT and 8962 were from ICI, now Garst Seed Company, Slater, Iowa 50244, and 3395IR was from Pioneer Hi-Bred International Inc, Iowa 50306-3453). Plants were sprayed with 4, 8, 16 or 20×PURSUIT® imazethapyr, ARSENAL® imazapyr, CADRE® imazameth or RAPTOR® imazamox. Plants were scored 0 to 5 (with 0 being dead plants, 5 being healthy plants with no injury) individually 16 days after herbicide treatments. […] For the four tested imidazolinones, transgenic plants could tolerate higher rates of ARSENAL® imazapyr, PURSUIT® imazethapyr, than CADRE® imazameth and RAPTOR® imazamox.

[4] = test system: transgenic corn hybrid BAa-4; assay: as above; conditions: for Score, individual plants (0 dead plants, 5 healthy plants with no injury) / M.S.: BAa-4; for Score, individual plants (0 dead plants, 5 healthy plants with no injury): 16 days after treatment; for M.S.: score 0 (dead) to 5 (healthy), 16 days
From the text: as §2, §3, §4

[5] = test system: non-transformed control corn line BxA (B73×A188); assay: as above; conditions: for Score, individual plants (0 dead plants, 5 healthy plants with no injury): 16 days after treatment; for M.S.: score 0 (dead) to 5 (healthy), 16 days
From the text: as §2, §3, §4

[6] = test system: transgenic corn hybrid MAa-7; assay: as above; conditions: for Score, individual plants (0 dead plants, 5 healthy plants with no injury) / M.S.: MAa-7; for Score, individual plants (0 dead plants, 5 healthy plants with no injury): 16 days after treatment; for M.S.: score 0 (dead) to 5 (healthy), 16 days
From the text: as §2, §3, §4

[7] = 4×: PURSUIT 250, RAPTOR 160, ARSENAL 96, CADRE 400 g/ha
[8] = 8×: PURSUIT 500, RAPTOR 320, ARSENAL 192, CADRE 800 g/ha
[9] = 16×: RAPTOR 640 g/ha, ARSENAL 384 g/ha, CADRE 1.6 kg/ha

SMILES: Cc1cnc(C2=NC(=O)C(C)(C(C)C)N2)c(C(=O)O)c1 (centres unmarked) [CADRE ®, imazameth]
- % seed-set ([1]; 1× rate): 98%
- No. filled seeds/3 panicles ([1]; 1× rate): 92
- Total No. of kernels/3 panicles ([1]; 1× rate): 94
- % seed-set ([1]; 2× rate): 83%
- No. filled seeds/3 panicles ([1]; 2× rate): 76
- Total No. of kernels/3 panicles ([1]; 2× rate): 82
- % seed-set ([1]; 4× rate): 0%
- No. filled seeds/3 panicles ([1]; 4× rate): 0
- Total No. of kernels/3 panicles ([1]; 4× rate): 0
- % seed-set ([1]; 6× rate): 0%
- No. filled seeds/3 panicles ([1]; 6× rate): 0
- Total No. of kernels/3 panicles ([1]; 6× rate): 0
- % seed-set (transgenic rice Line 29; 1× rate): 88%
- No. filled seeds/3 panicles (transgenic rice Line 29; 1× rate): 154
- Total No. of kernels/3 panicles (transgenic rice Line 29; 1× rate): 175
- % seed-set (transgenic rice Line 29; 2× rate): 86%
- No. filled seeds/3 panicles (transgenic rice Line 29; 2× rate): 143
- Total No. of kernels/3 panicles (transgenic rice Line 29; 2× rate): 166
- % seed-set (transgenic rice Line 29; 4× rate): 82%
- No. filled seeds/3 panicles (transgenic rice Line 29; 4× rate): 126
- Total No. of kernels/3 panicles (transgenic rice Line 29; 4× rate): 154
- % seed-set (transgenic rice Line 29; 6× rate): 80%
- No. filled seeds/3 panicles (transgenic rice Line 29; 6× rate): 127
- Total No. of kernels/3 panicles (transgenic rice Line 29; 6× rate): 159
- % seed-set (transgenic rice Line 26; 1× rate): 84%
- No. filled seeds/3 panicles (transgenic rice Line 26; 1× rate): 133
- Total No. of kernels/3 panicles (transgenic rice Line 26; 1× rate): 159
- % seed-set (transgenic rice Line 26; 2× rate): 95%
- No. filled seeds/3 panicles (transgenic rice Line 26; 2× rate): 153
- Total No. of kernels/3 panicles (transgenic rice Line 26; 2× rate): 161
- % seed-set (transgenic rice Line 26; 4× rate): 87%
- No. filled seeds/3 panicles (transgenic rice Line 26; 4× rate): 124
- Total No. of kernels/3 panicles (transgenic rice Line 26; 4× rate): 143
- % seed-set (transgenic rice Line 26; 6× rate): 77%
- No. filled seeds/3 panicles (transgenic rice Line 26; 6× rate): 131
- Total No. of kernels/3 panicles (transgenic rice Line 26; 6× rate): 169
- Score, individual plants (0 dead plants, 5 healthy plants with no injury) [2, 7]: 0
- M.S. [2, 7]: 0
- Score, individual plants (0 dead plants, 5 healthy plants with no injury) [2, 8]: 0
- M.S. [2, 8]: 0
- Score, individual plants (0 dead plants, 5 healthy plants with no injury) [2, 9]: 0
- M.S. [2, 9]: 0
- Score, individual plants (0 dead plants, 5 healthy plants with no injury) [3, 7]: 5
- M.S. [3, 7]: 5
- Score, individual plants (0 dead plants, 5 healthy plants with no injury) [3, 8]: 5
- M.S. [3, 8]: 5
- Score, individual plants (0 dead plants, 5 healthy plants with no injury) [3, 9]: 4 (2×) and 5 (3×)
- M.S. [3, 9]: 4.6
- Score, individual plants (0 dead plants, 5 healthy plants with no injury) [4, 7]: 5
- M.S. [4, 7]: 5
- Score, individual plants (0 dead plants, 5 healthy plants with no injury) [4, 8]: 3 (2×) and 2 (3×)
- M.S. [4, 8]: 2.4
- Score, individual plants (0 dead plants, 5 healthy plants with no injury) [4, 9]: 3 and 1 and 0 (3×)
- M.S. [4, 9]: 0.8
- Score, individual plants (0 dead plants, 5 healthy plants with no injury) [5, 7]: 0
- M.S. [5, 7]: 0
- Score, individual plants (0 dead plants, 5 healthy plants with no injury) [5, 8]: 0
- M.S. [5, 8]: 0
- Score, individual plants (0 dead plants, 5 healthy plants with no injury) [5, 9]: 0
- M.S. [5, 9]: 0
- Score, individual plants (0 dead plants, 5 healthy plants with no injury) [6, 7]: 5 (4×) and 4
- M.S. [6, 7]: 4.8
- Score, individual plants (0 dead plants, 5 healthy plants with no injury) [6, 8]: 2 (2×) and 4 (2×) and 3
- M.S. [6, 8]: 3
- Score, individual plants (0 dead plants, 5 healthy plants with no injury) [6, 9]: 0 (2×) and 1 (3×)
- M.S. [6, 9]: 0.6

SMILES: COCc1cnc(C2=NC(C)(C(C)C)C(=O)N2)c(C(=O)O)c1 (centres unmarked) [RAPTOR ®, imazamox]
- % seed-set ([1]; 1× rate): 0%
- No. filled seeds/3 panicles ([1]; 1× rate): 0
- Total No. of kernels/3 panicles ([1]; 1× rate): 0
- % seed-set ([1]; 2× rate): 0%
- No. filled seeds/3 panicles ([1]; 2× rate): 0
- Total No. of kernels/3 panicles ([1]; 2× rate): 0
- % seed-set ([1]; 4× rate): 0%
- No. filled seeds/3 panicles ([1]; 4× rate): 0
- Total No. of kernels/3 panicles ([1]; 4× rate): 0
- % seed-set ([1]; 6× rate): 0%
- No. filled seeds/3 panicles ([1]; 6× rate): 0
- Total No. of kernels/3 panicles ([1]; 6× rate): 0
- % seed-set (transgenic rice Line 29; 1× rate): 89%
- No. filled seeds/3 panicles (transgenic rice Line 29; 1× rate): 161
- Total No. of kernels/3 panicles (transgenic rice Line 29; 1× rate): 180
- % seed-set (transgenic rice Line 29; 2× rate): 80%
- No. filled seeds/3 panicles (transgenic rice Line 29; 2× rate): 137
- Total No. of kernels/3 panicles (transgenic rice Line 29; 2× rate): 171
- % seed-set (transgenic rice Line 29; 4× rate): 91%
- No. filled seeds/3 panicles (transgenic rice Line 29; 4× rate): 152
- Total No. of kernels/3 panicles (transgenic rice Line 29; 4× rate): 167
- % seed-set (transgenic rice Line 29; 6× rate): 80%
- No. filled seeds/3 panicles (transgenic rice Line 29; 6× rate): 125
- Total No. of kernels/3 panicles (transgenic rice Line 29; 6× rate): 149
- % seed-set (transgenic rice Line 26; 1× rate): 87%
- No. filled seeds/3 panicles (transgenic rice Line 26; 1× rate): 156
- Total No. of kernels/3 panicles (transgenic rice Line 26; 1× rate): 180
- % seed-set (transgenic rice Line 26; 2× rate): 89%
- No. filled seeds/3 panicles (transgenic rice Line 26; 2× rate): 172
- Total No. of kernels/3 panicles (transgenic rice Line 26; 2× rate): 193
- % seed-set (transgenic rice Line 26; 4× rate): 91%
- No. filled seeds/3 panicles (transgenic rice Line 26; 4× rate): 166
- Total No. of kernels/3 panicles (transgenic rice Line 26; 4× rate): 183
- % seed-set (transgenic rice Line 26; 6× rate): 77%
- No. filled seeds/3 panicles (transgenic rice Line 26; 6× rate): 136
- Total No. of kernels/3 panicles (transgenic rice Line 26; 6× rate): 167
- Score, individual plants (0 dead plants, 5 healthy plants with no injury) [2, 7]: 0
- M.S. [2, 7]: 0
- Score, individual plants (0 dead plants, 5 healthy plants with no injury) [2, 8]: 0
- M.S. [2, 8]: 0
- Score, individual plants (0 dead plants, 5 healthy plants with no injury) [2, 9]: 0
- M.S. [2, 9]: 0
- Score, individual plants (0 dead plants, 5 healthy plants with no injury) [3, 7]: 5
- M.S. [3, 7]: 5
- Score, individual plants (0 dead plants, 5 healthy plants with no injury) [3, 8]: 5
- M.S. [3, 8]: 5
- Score, individual plants (0 dead plants, 5 healthy plants with no injury) [3, 9]: 5
- M.S. [3, 9]: 5
- growth of transgenic line BAa-4 ([4]; 4× (160 g/ha)): slightly affected
- Score, individual plants (0 dead plants, 5 healthy plants with no injury) [4, 7]: 3 and 4 (4×)
- M.S. [4, 7]: 3.8
- Score, individual plants (0 dead plants, 5 healthy plants with no injury) [4, 8]: 4 (4×) and 0
- M.S. [4, 8]: 3.2
- Score, individual plants (0 dead plants, 5 healthy plants with no injury) [4, 9]: 3 and 0 (3×) and 1
- M.S. [4, 9]: 0.8
- Score, individual plants (0 dead plants, 5 healthy plants with no injury) [5, 7]: 0
- M.S. [5, 7]: 0
- Score, individual plants (0 dead plants, 5 healthy plants with no injury) [5, 8]: 0
- M.S. [5, 8]: 0
- Score, individual plants (0 dead plants, 5 healthy plants with no injury) [5, 9]: 0
- M.S. [5, 9]: 0
- performance of transgenic line MAa-7 ([6]; 4× (160 g/ha)): performed well
- Score, individual plants (0 dead plants, 5 healthy plants with no injury) [6, 7]: 4 and 5 (4×)
- M.S. [6, 7]: 4.8
- Score, individual plants (0 dead plants, 5 healthy plants with no injury) [6, 8]: 3 (3×) and 2 and 4
- M.S. [6, 8]: 3
- Score, individual plants (0 dead plants, 5 healthy plants with no injury) [6, 9]: 1
- M.S. [6, 9]: 1
